Laboratory results: patent US12448400B2, “KRAS G12D modulating compounds” (priority 2023, dated 2025)

Columns and labels:
[1] = Mouse oral cassette pharmacokinetics; assay type: in vivo, male CD-1 mice; conditions: male, CD-1, mouse, in vivo, po, 30 mg/kg
Experimental: Mouse Oral Cassette Pharmacokinetics
Test compounds (1-3 compounds per cassette) were formulated in solution formulations (10 w/v % Captisol in 50 mM Citrate buffer) and administered orally at 30 mg-eq./kg each compound to a group of four male CD-1 mice. The test articles were administrated by oral gavage at a dose volume of 10 mL-eq/kg.
Blood samples were collected at 0.5, 1, 3, 6, 8, and 24 hours post dose into K2EDTA tubes and stored on wet ice until processed. Whole blood was processed to plasma by centrifugation (3500 rpm for 10 minutes at 5° C.) within 30 minutes of collection. Plasma samples were placed in Micronic 96 well tubes and stored at −80° C. until transferred. Plasma concentration of the test compounds was determined by LC-MS/MS. Pharmacokinetic parameters were estimated using non-compartment model analysis. The maximum observed concentration (Cmax) and area under the curve from time of dosing to last measured concentration (AUClast) were calculated and reported.

[2] = Dog oral pharmacokinetics; set-up: species or system Male Beagle dogs; conditions: male, Beagle, in vivo
Experimental: Dog Oral Pharmacokinetics
(§1) Test compounds were formulated in solution formulations (10% w/v % Sulfobutylether-p-cyclodextrin; 90% w/v % 50 mM Citrate Buffer) and administered orally at 5 or 10 mg-eq./kg to a group of three Male Beagle dogs. The animals were fasted overnight prior to dose administration and up to four hours after dosing. The test articles were administrated by oral gavage at a dose volume of 5 ml/kg.
Blood samples were collected into K2EDTA tubes at predose and 0.25, 0.5, 1, 2, 4, 6, 8, 12, 24 hours post dose, and once daily collection post 24 hours up to 168 hours. Whole blood were stored on wet ice and processed to plasma by centrifugation (3500 rpm for 10 minutes at 5° C.) within 1 hour of collection. Plasma samples were placed in Micronic 96 well tubes and stored at −80° C. until transferred. Plasma concentration of the test compounds was determined by LC-MS/MS. Pharmacokinetic parameters were estimated using non-compartment model analysis. The maximum observed concentration (Cmax) and area under the curve from time of dosing to last measured concentration (AUClast) were calculated and reported.

[3] = Rat oral pharmacokinetics; set-up: species or system Male Sprague Dawley rats; conditions: male, Sprague Dawley, in vivo
Experimental: Rat Oral Pharmacokinetics
as §1, with “(10” for “(10%”, “orally” for “orally at 5 or 10 mg-eq./kg”, “Sprague Dawley rats.” for “Beagle dogs.”, “mL-eq/kg.” for “ml/kg.”
Blood samples were collected at predose and 0.25, 0.5, 1, 2, 4, 6, 8, 12, 24, 48 and 72 hours post dose into K2EDTA tubes and stored on wet ice until processed. Whole blood was processed to plasma by centrifugation (3500 rpm for 10 minutes at 5° C.) within 30 minutes of collection. Plasma samples were placed in Micronic 96 well tubes and stored at −80° C. until transferred. Plasma concentration of the test compounds was determined by LC-MS/MS. Pharmacokinetic parameters were estimated using non-compartment model analysis. The maximum observed concentration (Cmax) and area under the curve from time of dosing to last measured concentration (AUClast) were calculated and reported.

[4] = tested on: GP2D (KRAS G12D) cells; assay: 2D cell viability assay (CellTiter-Glo); assay type: cell-based; conditions: 96 h; GP2D cells, 4 days, CellTiter-Glo luminescence; read-out: G12D 2D EC50
How it was run: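 Viability was read by CellTiter-Glo after 4 days at 37 °C of 2D culture of KRAS G12D GP2D cells (1000/well, RPMI, 10% FBS) on pre-spotted threefold compound dilutions. EC50 was fitted with a sigmoidal dose-response model as the point of half-maximal luminescence loss.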

SMILES	Dog Parent % F ([2]; 10 mg/kg) [%]	Dog Parent AUC ([2]; 10 mg/kg) [µM·h]	Mouse Parent AUC (nM * h) [1]	EC50 [4] [pM]	Rat Parent % F ([3]; 15 mg/kg) [%]	Rat Parent AUC ([3]; 15 mg/kg) [µM·h]	Dog Parent % F ([2]; 5 mg/kg) [%]	further results
C#Cc1c(F)ccc2cc(O)cc(-c3nc4c5c(nc(OC[C@@]67CCCN6C[C@H](F)C7)nc5c3F)N3C[C@H]5CC[C@H](N5)[C@H]3CCC4)c12 [Comp. Ex. 75, reference compound]	0.6	0.071						Mouse Parent AUC [1]: 0.051 µM·h
C#Cc1c(F)ccc2cccc(-c3nc4c5c(nc(OC[C@@]67CCCN6C[C@H](F)C7)nc5c3F)N3C[C@H]5CC[C@H](N5)[C@H]3CCC4)c12 [Comp. Ex. 76, (6aR,7S,10R)-2-(8-ethynyl-7-fluoronaphthalen-1-yl)-1-fluoro-13-(((2R,7aS)-2-fluorotetrahydro-1H-pyrrolizin-7a(5H)-yl)methoxy)-5,6,6a,7,8,9,10,11-octahydro-4H-3,11a,12,14,15-pentaaza-7,10-methanocyclohepta[4,5]cycloocta[1,2,3-de]naphthalene, reference compound]			1,400 nM * h					Rat Parent % F ([3]; 5 mg/kg): 2%; Rat Parent AUC ([3]; 5 mg/kg): 0.059 µM·h
Cc1oc(=O)oc1CN1[C@@H]2CC[C@H]1[C@H]1CCCc3nc(-c4cc(O)cc5ccc(F)c(OC(F)(F)F)c45)c(F)c4nc(OC[C@@]56CCCN5C[C@H](F)C6)nc(c34)N1C2 [Example 18, 4-(((6aR,7S,10R)-1-fluoro-2-(7-fluoro-3-hydroxy-8-(trifluoromethoxy)naphthalen-1-yl)-13-(((2R,7aS)-2-fluorotetrahydro-1H-pyrrolizin-7a(5H)-yl)methoxy)-5,6,6a,7,8,9,10,11-octahydro-4H-3,11a,12,14,15-pentaaza-7,10-methanocyclohepta[4,5]cycloocta[1,2,3-de]naphthalen-15-yl)methyl)-5-methyl-1,3-dioxol-2-one]	12	0.6						
C#Cc1c(F)ccc2cc(N)cc(-c3nc4c5c(nc(OC[C@@]67CCCN6C[C@H](F)C7)nc5c3F)N3C[C@H]5CC[C@@H]([C@H]3CCC4)N5Cc3oc(=O)oc3C)c12 [Example 33, 4-(((6aR,7S,10R)-2-(3-amino-8-ethynyl-7-fluoronaphthalen-1-yl)-1-fluoro-13-(((2R,7aS)-2-fluorotetrahydro-1H-pyrrolizin-7a(5H)-yl)methoxy)-5,6,6a,7,8,9,10,11-octahydro-4H-3,11a,12,14,15-pentaaza-7,10-methanocyclohepta[4,5]cycloocta[1,2,3-de]naphthalen-15-yl)methyl)-5-methyl-1,3-dioxol-2-one]	11		1,500 nM * h	710	3.3	0.18		Dog Parent AUC (nM * h) ([2]; 10 mg/kg): 2,200 nM * h
C#Cc1c(F)ccc2cc(N)cc(-c3nc4c5c(nc(OC[C@@]67CCCN6C[C@H](F)C7)nc5c3F)N3C[C@H]5CC[C@@H]([C@H]3CCC4)N5Cc3oc(=O)oc3CC)c12 [Example 34, 4-(((6aR,7S,10R)-2-(3-amino-8-ethynyl-7-fluoronaphthalen-1-yl)-1-fluoro-13-(((2R,7aS)-2-fluorotetrahydro-1H-pyrrolizin-7a(5H)-yl)methoxy)-5,6,6a,7,8,9,10,11-octahydro-4H-3,11a,12,14,15-pentaaza-7,10-methanocyclohepta[4,5]cycloocta[1,2,3-de]naphthalen-15-yl)methyl)-5-ethyl-1,3-dioxol-2-one]			1,300 nM * h	400	5	0.27	12	Dog Parent AUC (nM * h) ([2]; 5 mg/kg): 1,200 nM * h
C#Cc1c(F)ccc2cc(O)cc(-c3nc4c5c(nc(OC[C@@]67CCCN6[C@H](COC(C(F)(F)F)(C(F)(F)F)C(F)(F)F)CC7)nc5c3F)N3C[C@H]5CC[C@@H]([C@H]3CCC4)N5Cc3oc(=O)oc3C)c12 [Example 38, 4-(((6aR,7S,10R)-2-(8-ethynyl-7-fluoro-3-hydroxynaphthalen-1-yl)-1-fluoro-13-(((3S,7aS)-3-(((1,1,1,3,3,3-hexafluoro-2-(trifluoromethyl)propan-2-yl)oxy)methyl)tetrahydro-1H-pyrrolizin-7a(5H)-yl)methoxy)-5,6,6a,7,8,9,10,11-octahydro-4H-3,11a,12,14,15-pentaaza-7,10-methanocyclohepta[4,5]cycloocta[1,2,3-de]naphthalen-15-yl)methyl)-5-methyl-1,3-dioxol-2-one]			2,100 nM * h	250			4.2	Rat Parent % F ([3]; 7.5 mg/kg): 3%; Rat Parent AUC ([3]; 7.5 mg/kg): 0.28 µM·h; Dog Parent AUC ([2]; 5 mg/kg): 0.21 µM·h
